For the experiment, the target named is T1, yeast topoisomerase II (yTOPOII) (Saccharomyces cerevisiae, UniProt P06786).
T1 construct: gene TOP2; purified enzyme, commercial (Inspiralis Limited, UK)
T1 sequence (P06786 1-1428): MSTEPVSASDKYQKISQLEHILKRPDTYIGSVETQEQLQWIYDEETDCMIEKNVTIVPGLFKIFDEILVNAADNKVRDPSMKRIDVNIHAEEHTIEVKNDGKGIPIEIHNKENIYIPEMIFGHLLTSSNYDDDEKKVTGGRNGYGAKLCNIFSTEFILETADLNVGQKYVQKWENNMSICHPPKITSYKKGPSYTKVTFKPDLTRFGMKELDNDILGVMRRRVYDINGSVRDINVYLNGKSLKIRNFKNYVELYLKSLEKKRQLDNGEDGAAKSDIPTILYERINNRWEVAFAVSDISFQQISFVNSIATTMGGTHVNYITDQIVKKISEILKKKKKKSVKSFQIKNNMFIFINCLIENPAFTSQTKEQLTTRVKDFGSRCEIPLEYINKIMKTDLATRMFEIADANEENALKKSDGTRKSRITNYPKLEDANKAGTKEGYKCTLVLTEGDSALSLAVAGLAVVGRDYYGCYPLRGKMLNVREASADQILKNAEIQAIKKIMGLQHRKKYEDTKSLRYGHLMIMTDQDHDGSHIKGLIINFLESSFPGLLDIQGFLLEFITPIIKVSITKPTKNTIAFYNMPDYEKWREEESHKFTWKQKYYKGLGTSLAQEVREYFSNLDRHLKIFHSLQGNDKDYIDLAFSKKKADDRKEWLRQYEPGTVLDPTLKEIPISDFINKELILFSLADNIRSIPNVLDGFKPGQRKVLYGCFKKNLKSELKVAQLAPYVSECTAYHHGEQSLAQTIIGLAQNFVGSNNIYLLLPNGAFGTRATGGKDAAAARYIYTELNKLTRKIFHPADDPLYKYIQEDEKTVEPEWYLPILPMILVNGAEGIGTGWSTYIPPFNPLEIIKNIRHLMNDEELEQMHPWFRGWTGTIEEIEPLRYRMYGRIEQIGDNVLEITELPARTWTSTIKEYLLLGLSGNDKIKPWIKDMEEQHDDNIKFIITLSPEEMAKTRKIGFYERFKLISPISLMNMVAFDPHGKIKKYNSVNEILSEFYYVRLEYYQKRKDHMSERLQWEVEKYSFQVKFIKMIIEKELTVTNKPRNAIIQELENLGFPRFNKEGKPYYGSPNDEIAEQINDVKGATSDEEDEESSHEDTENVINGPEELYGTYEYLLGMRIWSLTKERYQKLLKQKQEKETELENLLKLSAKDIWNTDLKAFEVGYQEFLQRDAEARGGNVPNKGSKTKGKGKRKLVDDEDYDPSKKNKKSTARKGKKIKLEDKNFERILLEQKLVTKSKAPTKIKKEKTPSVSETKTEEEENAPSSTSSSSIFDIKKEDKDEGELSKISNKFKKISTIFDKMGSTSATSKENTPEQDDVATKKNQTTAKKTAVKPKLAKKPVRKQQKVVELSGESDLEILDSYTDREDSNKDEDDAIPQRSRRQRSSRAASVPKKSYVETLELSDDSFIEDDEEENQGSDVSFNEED
The experiment can be described thus: gel-based relaxation of supercoiled plasmid DNA, densitometry. In kind it is biochemical. An excerpt: gel-based relaxation of supercoiled plasmid DNA, densitometry on yeast topoisomerase II (yTOPOII)

Drawing on publication PMC10864382, “Targeting yeast topoisomerase II by imidazo and triazoloacridinone derivatives resulting in their antifungal activity” (Scientific Reports, 2024), this text covers IC50 for 16 compounds.

As a reminder, the IC50 is the concentration at which inhibition is half-maximal. Higher therefore signals lower potency.

Compound `CN(C)CCCNc1ccc2nnn3c4ccc(O)cc4c(=O)c1c23` [C-1305] yielded an IC50 of 18.2 ± 1.4 µM.

On to `CCN(CC)CCNc1ccc2ncn3c4ccc(O)cc4c(=O)c1c23` [C-1311], for which half-maximal inhibition (IC50) required 16.6 ± 1.3 µM.

`CCN(CC)CCNc1ccc2ncn3c4ccc(OC)cc4c(=O)c1c23` [C-1330] gave an IC50 of 13.7 ± 1.1 µM. For `Cc1ccc2c(c1)c(=O)c1c(NCCCN(C)C)ccc3nnn2c31` [IKE1, 5-[-(3′-Dimethylamino)propylamino]-8-methyl-6H-[1–3]-triazolo[4,5,l-de]acridin-6-one], inhibition was half-maximal at 13.4 ± 1.1 µM (IC50). The same measure for `CCN(CC)CCCNc1ccc2nnn3c4ccc(C)cc4c(=O)c1c23` [IKE2, 5-[-(3′-Diethylamino)propylamino]-8-methyl-6H-[1–3]-triazolo[4,5,l-de]acridin-6-one]: 13.3 ± 1.1 µM; for `COc1ccc2c(c1)c(=O)c1c(NCCCN(C)C)ccc3nnn2c31` [IKE3, 5-[-(3′-Dimethylamino)propylamino]-8-methoxy-6H-[1–3]-triazolo[4,5,l-de]acridin-6-one]: 13.2 ± 1.1 µM. Take `CCN(CC)CCCNc1ccc2nnn3c4ccc(OC)cc4c(=O)c1c23` [IKE4, 5-[-(3′-Diethylamino)propylamino]-8-methoxy-6H-[1–3]-triazolo[4,5,l-de]acridin-6-one]: 13.3 ± 1.2 µM corresponded to half-maximal inhibition (IC50). For `COc1ccc2c(c1)c(=O)c1c(NCCCN)ccc3nnn2c31` [IKE5, 5-[-(3′-Aminopropyl)amino]-8-methoxy-6H-[1–3]-triazolo[4,5,l-de]acridin-6-one], the IC50 is 7.7 ± 1.1 µM. The same measure for `Cc1ccc2c(c1)c(=O)c1c(NCCCN)ccc3nnn2c31` [IKE6, 5-[-(3′-Aminopropyl)amino]-8-methyl-6H-[1–3]-triazolo[4,5,l-de]acridin-6-one]: 10.9 ± 1.1 µM; for `COc1ccc2c(c1)c(=O)c1c(NCCCNC(=O)[C@@H](N)CCCCN)ccc3nnn2c31` [IKE7, N′-{3-[(8-methoxy-6-oxo-6H-[1,2,3]triazolo[4,5,1-de]acridin-5-yl)amino]propyl} lysinamide]: 13.4 ± 1.1 µM. `Cc1ccc2c(c1)c(=O)c1c(NCCCNC(=O)[C@@H](N)CCCCN)ccc3nnn2c31` [IKE8, N′-{3-[(8-methyl-6-oxo-6H-[1,2,3]triazolo[4,5,1-de]acridin-5-yl)amino]propyl} lysinamide] had an IC50 of 15.2 ± 1.2 µM. In turn, `Cc1ccc2c(c1)c(=O)c1c(NCCN)ccc3ncn2c31` [IKE10, 5-[(2-aminoethyl)amino]-8-methyl-6H-imidazo[4,5,1-de]acridin-6-one] yielded an IC50 of 15.5 ± 1.3 µM. The same measure for `Cc1ccc2c(c1)c(=O)c1c(NCCNC(=O)[C@@H](N)CCCCN)ccc3ncn2c31` [IKE11, N-{2-[(8-methyl-6-oxo-6H-imidazo[4,5,1-de]acridin-5-yl)amino]ethyl}lysinamide]: 14.9 ± 1.1 µM; for `NCCNc1ccc2ncn3c4ccc(O)cc4c(=O)c1c23` [IKE12, 5-[(2-aminoethyl)amino]-8-hydroxy-6H-imidazo[4,5,1-de]acridin-6-one]: 10.9 ± 1.1 µM; for `COc1ccc2c(c1)c(=O)c1c(NCCN)ccc3ncn2c31` [IKE13, 5-[(2-aminoethyl)amino]-8-methoxy-6H-imidazo[4,5,1-de]acridin-6-one]: 6.2 ± 1.2 µM. The same measure for `COc1ccc2c(c1)c(=O)c1c(NCCNC(=O)[C@@H](N)CCCCN)ccc3ncn2c31` [IKE14, N-{2-[(8-methoxy-6-oxo-6H-imidazo[4,5,1-de]acridin-5-yl)amino]ethyl}lysinamide]: 14.7 ± 1.1 µM.
